# Test results from US9605026B2, “Hydrogen-bond surrogate peptides and peptidomimetics for p53 reactivation” (New York University, priority 2013, dated 2017).
# System: p53-regulated genes (p21, miR-34a, miR-200c)
# Assay: qPCR expression of p300, p53, p21, miR-34a, miR-200c in UMSCC47 cells
# Assay type: cell-based, human
# Details: UMSCC47, 10 μM, 24 hours, vs control
# Excerpt: FIG. 5A is an schematic illustration showing that CH1 has two distinct target sites. HIF1-α/p300 structures were used as guides to design helix mimetics that target site A and site B on the CH1 domain of p300. […] CH1iA (SEQ ID NO: 7) and CH1iB (SEQ ID NO: 8) were designed to mimic two helices from the C-terminal domain of HIF-1α. The peptides were locked into the helical conformation by the hydrogen bond surrogate method. FIG. 5C is a graph of p53 activity. UMSCC47 (left) and UMSCC74A (right) cells were co-transfected with a p53 Firefly luciferase reporter plasmid and a control Renilla luciferase plasmid. After 24 hours, cells were treated with control (vehicle), CH1iA (10 μM), or CH1iB (10 μM) for 24 hours. Firefly luciferase activity was normalized to Renilla luciferase activity to control for transfection efficiency. Data is normalized to control and presented as mean±SEM. *P<0.05, n=3. […] UMSCC47 (top panel) and UMSCC74A (bottom panel) cells were treated with control (vehicle), CH1iA (10 μM), or CH1iB (10 μM) for 24 hours. mRNA expression was determined using qPCR with validated TaqMan assays. […]
# FIG. 6A is a western blot showing total and acetylated p53 levels. […] UMSCC47 cells were treated with control (vehicle), CH1iB (10 μM), cis-platinum (10 μM), or CH1iB (10 μM) and cis-platinum (10 μM) for 24 hours. mRNA expression was determined using qPCR with validated TaqMan assays. […]
substance,measurement,value
"XELA*RALDQ-NH2 (ELXRALDQ; HBS: 4-pentenoic acid, N-allylalanine; C-terminal amide; CH1iB) [X 4-pentenoic acid, A* N-allylalanine]","p21, miR-34a, and miR-200c expression",modest but significant increase
